Source: PMC2972509 (Journal of medicinal chemistry, 2010)
Where “and” joins values, the source holds several entries; their conditions need not be identical. Equal entries are not always repeated. Entries after “also recorded” stand apart in the source; their conditions may differ.

Tests used:
dopamine D4 receptor = target: T1, dopamine D4 receptor (Rattus norvegicus, UniProt P30729); test: Radioligand competition binding at cloned dopamine D4 receptor; details: for D4 Ki, nM ± SEM: [3H]MSP, cloned rat D4 receptor in HEK293 membranes; for Selectivity for D4 over off-target receptors: over D2, D3, 5-HT1A, 5-HT2A, 5-HT2C and sigma1 receptors
T1 sequence (P30729 1-387): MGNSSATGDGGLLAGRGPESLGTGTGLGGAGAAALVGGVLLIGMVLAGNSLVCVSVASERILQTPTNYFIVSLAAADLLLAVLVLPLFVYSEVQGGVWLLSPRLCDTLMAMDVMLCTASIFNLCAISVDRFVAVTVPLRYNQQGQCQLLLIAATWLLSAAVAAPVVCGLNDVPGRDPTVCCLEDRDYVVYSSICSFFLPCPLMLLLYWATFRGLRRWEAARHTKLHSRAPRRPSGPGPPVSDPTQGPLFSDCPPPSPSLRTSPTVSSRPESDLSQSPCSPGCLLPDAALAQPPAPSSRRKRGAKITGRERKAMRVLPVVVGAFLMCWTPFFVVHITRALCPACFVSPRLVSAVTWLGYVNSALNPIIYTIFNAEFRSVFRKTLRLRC

[1] = Preliminary disposition studies in mice; format: in vivo; details: for Tmax: male, CD1, mouse, plasma, ip; for Maximum brain concentration (mean ± SD) / Maximum plasma concentration (mean ± SD): parent compound, 7 after 30 min, 13 after 15 min
[2] = target: T2, cloned D4 dopamine receptor (Rattus norvegicus, UniProt P30729); test: D4 receptor functional assay: decrease in forskolin-stimulated cAMP accumulation; format: cell-based; details: Gi/o-mediated
T2 sequence (P30729 1-387): T1 sequence (P30729 1-387)

Fold higher D4 affinity than the 3-methoxy analog 5 (dopamine D4 receptor)	D4 Ki, nM ± SEM (dopamine D4 receptor)	Tmax ([1]; 10 mg/kg)	Time up to which plasma concentrations were consistently detected ([1]; mice, 10 mg/kg i.p.)	Time up to which quantifiable brain levels were consistently evident ([1]; mice, 10 mg/kg i.p.)	Maximum brain concentration (mean ± SD) ([1]; mice, 10 mg/kg i.p.)	Maximum plasma concentration (mean ± SD) ([1]; mice, 10 mg/kg i.p., 10 mg/kg)	Selectivity for D4 over off-target receptors (dopamine D4 receptor)	Time of mean brain Cmax ([1]; mice, 10 mg/kg i.p.)	Plasma concentration after 30 minutes (below limit of quantitation) ([1]; mice, 10 mg/kg i.p., 0.2 ml plasma)	Maximum plasma concentration (mean ± SD) ([1]; mice, 10 mg/kg i.p.)	SMILES	Functional property at D4 receptor [2]
approximately 6 fold	subnanomolar	–	–	–	–	–	–	–	–	–	O=C(NCCN1CCN(c2noc3ccccc23)CC1)c1ccc(F)cc1 [Compound 11, N-[2-[4-(1,2-Benzisoxazol-3-yl)piperazin-1-yl]ethyl]-4-fluorobenzamide]	–
–	nanomolar affinity	30 min	up to 60 minutes	up to 30 min	0.14 ± 0.02 µg/g	0.37 ± 0.02 µg/mL and 0.37 ± 0.21 µg/mL	> 100 fold	–	–	–	COc1cccc(C(=O)NCCN2CCN(c3ncccc3C#N)CC2)c1 [Compound 7, N-[2-[4-(3-Cyanopyridin-2-yl)piperazin-1-yl]ethyl]-3-methoxybenzamide]	agonist properties; also recorded: agonists

SMILES	Fold higher D4 affinity than the 3-methoxy analog 5 (dopamine D4 receptor)	D4 Ki, nM ± SEM (dopamine D4 receptor)	Tmax ([1]; 10 mg/kg)	Time up to which plasma concentrations were consistently detected ([1]; mice, 10 mg/kg i.p.)	Time up to which quantifiable brain levels were consistently evident ([1]; mice, 10 mg/kg i.p.)	Maximum brain concentration (mean ± SD) ([1]; mice, 10 mg/kg i.p.)	Maximum plasma concentration (mean ± SD) ([1]; mice, 10 mg/kg i.p., 10 mg/kg)	Selectivity for D4 over off-target receptors (dopamine D4 receptor)	Time of mean brain Cmax ([1]; mice, 10 mg/kg i.p.)	Plasma concentration after 30 minutes (below limit of quantitation) ([1]; mice, 10 mg/kg i.p., 0.2 ml plasma)	Maximum plasma concentration (mean ± SD) ([1]; mice, 10 mg/kg i.p.)	Functional property at D4 receptor [2]
N#Cc1cccnc1N1CCN(CCNC(=O)c2ccc(F)cc2)CC1 [Compound 13, N-[2-[4-(3-Cyanopyridin-2-yl)piperazin-1-yl]ethyl]-4-fluorobenzamide]	–	subnanomolar; also recorded: nanomolar affinity	15 min	–	up to 60 min	0.47 ± 0.20 µg/g	–	> 100 fold	15 min	less than 0.1 µg/mL	0.13 ± 0.10 µg/mL	agonist properties; also recorded: agonists
